Data set [1] in a line: Solubility (qualitative). It counts as physicochemical.
For data set [2], the system named is Candida parapsilosis (C. parapsilosis) ATCC 22019. The data set is described as follows: Antimicrobial activity, macrodilution method (yeast, growth by A590). It counts as cell-based. Conditions: Yeast; Sabouraud's growth medium, 37 °C; read-out: IC50 C. parapsilosis. The protocol: (§1) The antimicrobial activities of gallium(III) complexes GaPic, GaDpic, GaChel, GaCldpic, free ligands (HPic, H2Dpic, H2Chel, H2Cldpic) and positive controls (cefoxitin (C), ampicillin (A) and piperacillin (P)) were evaluated by macrodilution method using G^+ bacteria (Firmicutes) Staphylococcus aureus (S. aureus) CCM 3953 (Czech Collection of Microorganisms), G^− bacteria (γ-proteobacteria) Escherichia coli (E. coli) CCM 3988, Pseudomonas aeruginosa (P. aeruginosa) CCM 1959 (Czech Collection of Microorganisms) and the yeast Candida parapsilosis (C. parapsilosis) ATCC 22019 (American type culture collection). Cultures of bacteria (in Mueller–Hinton broth, MHB) and yeasts (in Sabouraud’s growth medium, SB) were incubated under shaking (250 rpm) at 37 °C. The growth of bacteria and yeasts was evaluated by measuring the absorbance of the growing cultures (A590) until the cultures reached the stationary growth phase. The effects of gallium(III) complexes on the growth of filamentous fungi Rhizopus oryzae (R. oryzae) CCM F-8284, Alternaria alternata (A. alternata) CCM F-128 and Microsporum gypseum (M. gypseum) CCM F-8342 (Czech Collection of Microorganisms) were observed by macrodilution method on solidified potato-dextrose growth medium (PDA). During culturing, the diameters of growing fungal colonies were measured at regular intervals. Briefly, the antimicrobial activity (bacteria and yeasts) gallium(III) complexes/ ligands were added to the microbial culture at the beginning of the cultivation-to the lag phase. Pure gallium(III) complexes/ligands were dissolved in DMSO. The final concentration of DMSO never exceeded 1.0 vol. % neither in control nor treated samples. Concentration of gallium(III) complexes used in experimental work for evaluation of antimicrobial activity was used in the range of 0.05–2 mM, for the free ligands in the range of 0.5–2.0 mM in all experiments. […] The IC50 values were evaluated from toxicity curves. All the obtained results of antimicrobial activity were compared to the activity of Ga(NO3)3.

For data set [3], the system named is Escherichia coli (E. coli) CCM 3988. The data set is described as follows: Antimicrobial activity, macrodilution method (growth by A590). The data set is classed as cell-based. The note with it: for IC50: Bacteria, MHB, 37 °C, DMSO max 1.0 vol. %, read-out: IC50 E. coli. Here is the method:
as §1

Data set [4] concerns Staphylococcus aureus (S. aureus) CCM 3953. The data set is described as above. It counts as cell-based. Conditions: for IC50: Bacteria, MHB, 37 °C, DMSO max 1.0 vol. %, read-out: IC50 S. aureus. The protocol: as §1
For data set [5], the system named is Pseudomonas aeruginosa (P. aeruginosa) CCM 1959. Described as above. The note with it: for IC50: Bacteria, MHB, 37 °C, DMSO max 1.0 vol. %, read-out: IC50 P. aeruginosa; for MIC100 (MIC) P. aeruginosa: growth fully inhibited (100%). It counts as cell-based. The protocol: as §1
In data set [6] the test system is human dermal fibroblasts (HDF). The data set is described as follows: in vitro. Here is the method: (§2) Cell culture the cell lines A2058 (human metastatic melanoma), BLM (human metastatic melanoma), HCT116 (human colorectal carcinoma), HeLa (human cervical adenocarcinoma), Jurkat (human leukaemic T cell lymphoma). […] Cells were maintained in standard conditions with an atmosphere containing 5% CO2 at 37 °C.
(§3) The antiproliferative activity of Ga(III) complexes GaPic, GaDpic, GaChel, GaCldpic, free ligands (HPic, H2Dpic, H2Chel, H2Cldpic) and cisplatin (cisPt) were evaluated by colorimetric microculture MTS (3-(4,5-dimethylthiazol-2-yl)-5-(3-carboxymethoxyphenyl)-2-(4-sulfophenyl)-2H tetrazolium) assay (Promega, Madison, WI, USA). Cancer and non-cancer cells were seeded at density 5 × 10^3 cells/well in 96-well polystyrene microplates. Twenty-four hours after cell seeding, different concentrations (1.0—100.0 µM) of the compounds were tested. After 72 h of incubation, 10 µL of MTS was added to each well. After an additional 2 h, cell proliferation was evaluated by measuring of absorbance at wavelength 490 nm using the automated Cytation™ 3 Cell Imaging Multi-Mode Reader (Biotek, Winooski, VT, USA). The absorbance of control wells was taken as 100%, and the results were expressed as a percent of untreated control. IC50 values were calculated from MTS analyses.

The subject of data set [7] is MDA-MB-231 (human mammary gland adenocarcinoma). The data set is described as follows: MTS antiproliferative assay. Here is the method:
as §2, §3
(Tetrazolium assays rely on reduction of a dye to a coloured formazan, in cell work by metabolically active cells.)

The test system of data set [8] is A2058 (human metastatic melanoma). The data set is described as follows: MTS antiproliferative assay. The protocol: as §2, §3
The test system of data set [9] is HCT116 (human colorectal carcinoma). The data set is described as follows: MTS antiproliferative assay. The protocol: as §2, §3
The subject of data set [10] is HeLa (human cervical adenocarcinoma). The data set is described as follows: MTS antiproliferative assay. The protocol:
as §2, §3

For data set [11], the system named is Jurkat (human leukaemic T cell lymphoma). The data set is described as follows: MTS antiproliferative assay. The protocol:
as §2, §3

Data set [12] relates to PaTu 8902 (human pancreatic adenocarcinoma). The data set is described as follows: MTS antiproliferative assay. Here is the method: as §2, §3
Data set [13] can be described thus: Complex stability in biological testing medium by time-dependent 1H NMR. The data set is classed as physicochemical. The note with it: 300 K, over 96 h. Here is the method:
Nuclear magnetic resonance (NMR) data were collected on a Varian VNMRS 600 spectrometer operating at 599.87 MHz for ^1H. The concentration of all samples was approximately 3 mg/0.6 mL of 1% DMSO-d6/D2O. For comparison, the spectra of pure acids were also measured, while the pH of the solution of acids was adjusted to the same value as the solution of the complexes. The chemical shifts were referenced to the TSP (3-(trimethylsilyl)propionic-2,2,3,3-d4 acid sodium salt) peak (^1H NMR 0.00 ppm). The NMR data were recorded at 300 K, with chemical shifts δ reported in parts per million and coupling constants J in Hertz. All data were analysed using MestReNova 12.0.0 (2017) software. The stability in 1% DMSO-d6/D2O was determined for all samples. […]

In data set [14] the test system is Alternaria alternata (A. alternata) CCM F-128. The data set is described as follows: Growth of filamentous fungi, macrodilution method on solidified PDA (colony diameter). The data set is classed as cell-based. Conditions: Filamentous fungi; solidified potato-dextrose growth medium; read-out: IC50 A. alternata. Here is the method:
as §1

For data set [15], the system named is Rhizopus oryzae (R. oryzae) CCM F-8284. Described as above. It counts as cell-based. The note with it: solidified potato-dextrose growth medium; read-out: IC50 R. oryzae. The protocol: as §1
The subject of data set [16] is Microsporum gypseum (M. gypseum) CCM F-8342. The description is as above. It counts as cell-based. Conditions: Filamentous fungi; solidified potato-dextrose growth medium; read-out: IC50 M. gypseum. Here is the method: as §1
Data set [17] deals with HepG2 cells. Also noted: method as in PMID 16827101. Conditions: after 6 days of treatment; read-out: antiproliferative effect IC50; cited from earlier work.
The target in data set [18] is T1, bovine serum albumin (BSA) (Bos taurus, UniProt P02769).
T1 construct: purchased Sigma-Aldrich Chemicals
T1 sequence (P02769 25-607): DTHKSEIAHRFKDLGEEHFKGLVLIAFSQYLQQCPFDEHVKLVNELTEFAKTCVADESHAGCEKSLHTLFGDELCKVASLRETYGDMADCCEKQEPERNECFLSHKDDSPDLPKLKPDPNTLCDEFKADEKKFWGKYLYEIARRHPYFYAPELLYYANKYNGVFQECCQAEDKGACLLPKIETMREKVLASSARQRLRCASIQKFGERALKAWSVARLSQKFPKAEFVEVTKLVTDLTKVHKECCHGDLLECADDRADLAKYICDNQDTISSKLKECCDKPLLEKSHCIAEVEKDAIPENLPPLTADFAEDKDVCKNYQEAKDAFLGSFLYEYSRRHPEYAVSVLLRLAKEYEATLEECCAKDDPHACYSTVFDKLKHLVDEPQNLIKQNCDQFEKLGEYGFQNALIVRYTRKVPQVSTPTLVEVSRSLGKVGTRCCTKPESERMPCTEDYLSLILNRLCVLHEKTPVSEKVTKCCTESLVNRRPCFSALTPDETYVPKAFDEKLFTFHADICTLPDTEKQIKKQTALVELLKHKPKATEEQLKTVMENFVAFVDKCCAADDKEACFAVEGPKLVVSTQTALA
The data set is described as follows: BSA fluorescence quenching (Stern-Volmer). It counts as binding. Conditions: 0.01 M PBS buffer pH 7.4, 25 °C, λex = 280 nm. Here is the method: Fluorescence measurements were carried out on a Varian Cary Eclipse spectrofluorometer. The quenching studies of BSA with the Ga(III) complexes were investigated to determine whether they were able to quench fluorescence of BSA. All measurements were performed at 25 °C in 0.01 M PBS buffer (pH 7.4). The fluorescence spectra were measured at an excitation wavelength of 280 nm, with a slit width of 10 nm for the excitation and emission beams, in the range of 300–450 nm and analysed according to the classical Stern–Volmer Equation: F0/F=1+KSVQ where F0 and F are the fluorescence intensities in the absence and the presence of the quencher, respectively, KSV is the Stern–Volmer constant, and [Q] is the concentration of quencher.

Data set [19] has as its system HepG2 (human liver cancer cell line). The data set is described as follows: MTT cell viability test. The note with it: 100 μM, after 48 h. It counts as cell-based. The protocol:
Prior to each experiment, cell viability was determined using an automated cell counter (Countess II FL, Thermo Fisher Scientific, USA). 50 μl of the HepG2 cell suspension was transferred into new tube and 12.5 μl of trypan blue was added. After one minute, 10 μl was taken from the prepared suspension to determine the number of viable cells in 1 ml. The automated cell counter determined the total number of viable cells and the percentage of viability. […] Cells (2 × 10^4/200 μl) were incubated in 96-well microtiter plates for 24 and 48 h in the presence of metal complexes, picolinic acid, and gallium(III) nitrate, at 37 °C in humified atmosphere with 5% CO2. The cells were centrifuged for 10 min at 2500 rpm and 20 °C, supernatant was removed and 180 μl of fresh serum-free medium was added. Then 10 μl of MTT solution with a concentration of 5 mg/ml was added and cells were incubated for next 2–3 h in the dark until a precipitate formed. After centrifugation and removal of supernatant 150 μl of DMSO was added to the cells to dissolve the precipitate. Absorbance at 540 nm was measured using a spectrophotometer.

Data set [20] deals with cancer cell lines (A2780, MDA-MB-231, HCT116). Details: method as in PMID 32354569. Conditions: cited from earlier work.
The conditions of data set [21]: cited from earlier work.
Details of data set [22]: method as in doi:10.1002/hlca.19600430611. The note with it: cited from earlier work.

A word on the IC50: it is the concentration that inhibits the measured activity by half.

On to `O.O.O=C([O-])c1cc(Cl)cc(C(=O)[O-])n1.O=C([O-])c1cc(Cl)cc(C(=O)[O-])n1.[Ga+3].[Ga+3].[OH-].[OH-]` [GaCldpic, [Ga(Cldpic)(H2O)(OH)]2], for which the solubility in ethanol entry in [1] was “slightly soluble”. Besides, the IC50 in data set [2] was over 2000 µM; in data set [3], over 2000 µM; in data set [4], over 2000 µM; in [5], 50 µM; in [6], 447 ± 27.6 µM; in data set [7], 271 ± 68.3 µM. The IC50 in data set [8] is 294 ± 57.5 µM; in data set [9] it was 404 ± 47.7 µM; in data set [10], 447 ± 134 µM; in data set [11], 405 ± 87 µM; in data set [12] it was 437 ± 22.6 µM; in [14], over 2000 µM. Besides, the IC50 in data set [15] and in data set [16] was over 2000 µM throughout. In addition, the “partial inhibition of E. coli growth” value in [3] (concentration not given) is reported as 30%. For the same compound, in [5], the “MIC100 (MIC) P. aeruginosa” value stood at 500 µM. In addition, in data set [13], the “stability in 1% DMSO-d6/D2O solution” value is “stable”.

Turning to `Cc1occc(=O)c1[O-].Cc1occc(=O)c1[O-].Cc1occc(=O)c1[O-].[Ga+3]` [GaM, Ga(III) maltolate], the IC50 in [17] was 25 to 35 µM.

On to `O.O=C([O-])c1ccccn1.O=C([O-])c1ccccn1.O=C([O-])c1ccccn1.[Ga+3]` [GaPic, [Ga(Pic)3]·H2O], for which the concentration for half-maximal inhibition (IC50) is over 2000 µM in [2]; over 2000 µM in data set [3]; 2000 µM in data set [4]; 50 µM in data set [5]; 231 ± 23.8 µM in data set [6]; 152 ± 74.3 µM in data set [7]. For the same compound, the IC50 in data set [8] is 187 ± 12.2 µM; in data set [9], 995 ± 27.5 µM; in [10] it was 1530 ± 108 µM; in data set [11], 175 ± 47.7 µM; in [12], 271 ± 34.3 µM; in data set [14] it was over 2000 µM. Also, the 50% inhibitory concentration (IC50) in [15] and in data set [16] was over 2000 µM in each case. For the same compound, the “inhibition of S. aureus growth” value in data set [4] (complex at 2 mM) was found to be 50%. For the same compound, the “MIC100 (MIC) P. aeruginosa” value in data set [5] turned out to be 500 µM. Moreover, the “Stern–Volmer binding constant Ksv BSA” value in [18] was found to be 46700 M⁻¹. Besides, the “decrease in cell viability of HepG2” value in data set [19] was 28%. Besides, the “stability in 1% DMSO-d6/D2O solution” value in data set [13] is recorded as “does not decompose”.

`CO.[Ga+3].[O-]c1ccc(Cl)c2cccnc12.[O-]c1ccc(Cl)c2cccnc12.[O-]c1ccc(Cl)c2cccnc12` [[Ga(ClQ)3]⋅MeOH]: in data set [20], the “activity of the Ga(III) complex relative to the activity of H-ClQ” value is recorded as “at least 2.5 times”.

`O=C(O)c1cccnc1` [nicotinic, nicotinic acid]: in data set [21], the “dissociation constant pK2” value is on record as 4.66.

Fe(Dpic)2: the “stability constant logβ021” value in data set [22] is 17.13.
